Where two headings read alike, the source gives them in different places.
Key:
human CD40/CD154 = target: T1, human CD40/CD154 (Homo sapiens, UniProt P29965); assay: Human CD40/CD154 binding inhibition assay (cell-free, plate-based)
T1 construct: CD154 (soluble human, FLAG-tagged, recombinant from Alexis Biochemicals; MW=18 kDa); purchased Alexis Biochemicals
T1 sequence (P29965 113-261 limits assumed): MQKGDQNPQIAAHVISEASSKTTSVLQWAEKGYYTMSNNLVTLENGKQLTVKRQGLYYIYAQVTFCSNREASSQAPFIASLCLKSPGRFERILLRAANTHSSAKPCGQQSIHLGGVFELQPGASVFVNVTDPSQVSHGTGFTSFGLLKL
Protocol: A 96-well plate-based cell-free in vitro binding inhibition assay, which is a modification of an assay described in U.S. Pat. No. 7,173,046, incorporated by reference in its entirety, has been developed and used for activity screening. Briefly, CD40 is coated at a preselected concentration, and binding of (FLAG-tagged) CD154 is measured by reacting with secondary antibody and using TMB liquid substrate system as a substrate for horseradish peroxidase for reading at 450 nm. The detailed procedure is as follows: Microtiter plates (Nunc F MaxiSorp) were coated with […] of CD40: Fc (human:Fc human, recombinant from Alexis Biochemicals; MW=54 kDa) diluted in PBS pH 7.2 at a preselected concentration of 0.3125 μg/mL. Plates were covered with plate sealer and stored overnight at 4° C. The liquid was removed from the plates and blotted dry. Plates were blocked by washing once with approx. 300 μL/well of Blocking Solution (PBS pH 7.2, 0.05% Tween-20, 1% BSA) and incubated with the same solution for 1 hour at room temperature (RT) or at 4° C. overnight. Coated plates were washed three times with Washing Solution (PBS pH 7.4, 0.05% Tween-20) and blotted dry. A preselected dilution of CD154 (soluble human, FLAG-tagged, recombinant from Alexis Biochemicals; MW=18 kDa) of 0.0087500875 μg/mL range was prepared in 100 mM HEPES, 0.005% BSA pH 7.2. Binding was carried out by adding 100 μL of this CD154 dilution/well and incubating at RT in the presence of test compounds (or blank as negative control). After incubation, the plates were washed with Washing Solution and blotted dry. Bound CD154 was detected with 200 μL/well of secondary antibody mAb ANTI-FLAG M2—Peroxidase Conjugate (anti-FLAG M2-peroxidase HRP conjugate; Sigma-Aldrich) diluted 1:40,000 in Washing Solution. After incubation, the plates were washed and blotted dry. 200 μL/well of the HR-Peroxidase substrate TMB (3,3′,5,5′-tetramethylbenzidine; Sigma-Aldrich) were added, and the plates were incubated for approximately 30 minutes in the dark. The reaction was stopped with 0.5 M H2SO4 and read at 450 nm. All conditions were tested in at least three independent experiments in duplicate or triplicate per plates. Data were normalized and fitted with standard log inhibitor vs. response models using GraphPad Prism 5 to establish median inhibitory ICso values.
A representative result using the monoclonal anti-human CD154 antibody (R&D Systems, monoclonal anti-human CD40 ligand/TNFSF5 antibody, MAB617; MW≈150 kDa used) as positive control is shown in FIG. 1.
Binding inhibition assays with this system provided consistent and well-reproducible results, as FIG. 1 (bottom), focusing on the concentration range of their activities, illustrates. […] The effect of DMSO, which was used as the diluting solvent for the non-water-soluble compounds and is a standard solvent in HTS assays, on the integrity of the assay has been examined. DMSO concentrations above 10% interfere with the binding assay, but concentrations below 3% have no effect. […] Because 5 or 10 mM stock solutions were used, all IC50 values below 250 μM can be considered as unaffected by DMSO.

[1] = target: T2, mouse CD40/CD154 (mCD40:mCD154) (Mus musculus, UniProt P27548); assay: Murine CD40/CD154 binding inhibition assay; settings: for IC50: cell-free binding, read-out: Mouse CD40/CD154 IC50
T2 construct: (FLAG-tagged) mCD154 (recombinant mouse CD40L, soluble, Alexis Biochemicals); purchased R&D Systems (mCD40/Fc); Alexis Biochemicals (mCD154)
T2 sequence (P27548 112-260 limits assumed): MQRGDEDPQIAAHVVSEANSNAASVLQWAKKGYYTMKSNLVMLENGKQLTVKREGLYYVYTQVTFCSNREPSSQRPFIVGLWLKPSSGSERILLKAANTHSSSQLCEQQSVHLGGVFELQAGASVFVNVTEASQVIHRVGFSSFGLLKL
Protocol: Compounds of interest were also tested in a murine (mouse) model similar to the human one with murine CD40 and CD154 replacing the corresponding human proteins. This serves as additional confirmation of the in vitro inhibitory potential of these compounds, and it was considered important because mouse models are likely to be used as the first in vivo tests. […] The experimental setup used was similar to the one described above, but using mCD40 (recombinant mouse CD40/TNFRSF5/Fc Chimera, soluble, R&D Systems) and (FLAG-tagged) mCD154 (recombinant mouse CD40L, soluble, Alexis Biochemicals). This time, however, a higher concentration of CD154 ligand had to be employed to obtain adequate signals, and after a number of calibration tests, mCD40 coating at 0.3125 μg/mL with mCD154 (mCD40L) at 1.1212 μg/mL range was selected to be used to screen the inhibiting activity of various compounds.
The experiments confirmed that the murine anti-CD154 monoclonal antibody (Taconic, MR1) was active in this system at the expected concentration (˜1 nM range), the human antibody was not, and vice versa, the human mAb was active in the human system, but not in the mouse system. The mouse system provided a similar range of activity with some (up to approximately five-fold) changes in activities compared to that seen in the human system (FIG. 2) (Table 1).

human TNF-R1/TNFα = human TNF-R1/TNFα (Homo sapiens, UniProt P01375+P19438); assay: Specificity test: human TNF-R1/TNFα binding inhibition assay; settings: for IC50: cell-free binding, read-out: Human TNFR1/TNFα IC50
Sequence of human TNF-R1/TNFα (P01375 77-233 limits assumed): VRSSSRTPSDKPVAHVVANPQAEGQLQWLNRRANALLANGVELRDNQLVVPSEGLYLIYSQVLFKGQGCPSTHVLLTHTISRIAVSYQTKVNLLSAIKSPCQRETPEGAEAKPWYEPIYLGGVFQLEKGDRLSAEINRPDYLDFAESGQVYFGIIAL
Sequence of human TNF-R1/TNFα (P19438 30-211 limits assumed): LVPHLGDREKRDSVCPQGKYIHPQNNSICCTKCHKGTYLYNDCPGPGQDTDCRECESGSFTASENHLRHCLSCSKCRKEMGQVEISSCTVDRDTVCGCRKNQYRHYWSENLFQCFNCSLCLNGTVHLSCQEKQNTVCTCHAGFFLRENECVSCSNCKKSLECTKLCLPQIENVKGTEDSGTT
From the text: A main concern for the therapeutic applicability of these compounds and of small molecule PPI inhibitors in general is related to their ability to achieve some acceptable degree of selectivity/specificity for the PPI of interest. To identify compounds that show acceptable specificity for the CD40/CD154 system, their ability to inhibit the TNF-R1/TNF-α PPI was investigated since this is particularly relevant as CD154 is part of the TNF superfamily. The experimental setup used was very similar to the one described in Example 1, but using plate-coated TNF-R1 and TNF-α as ligand (with a corresponding anti-TNF-α mAb as positive control). The concentration of TNF-R1 and TNF-α used were 0.6 μg/mL and 0.02 μg/mL, respectively.

[2] = cell-free binding, read-out: Human CD40/CD154 IC50

Row | IC50 (human CD40/CD154; [2]) [µM] | IC50 (human CD40/CD154; cell-free binding, read-out: Human CD40/CD154 IC50 (ug/mL) (converted)) [µM] | IC50 [1] [µM] | IC50 (human TNF-R1/TNFα) [µM] | Activity in the human CD40/CD154 binding assay (human CD40/CD154) | Human CD40/CD154 IC50 (human CD40/CD154; cell-free binding) [µg/mL] | Human CD40/CD154 log IC50 (human CD40/CD154; log of IC50, cell-free binding) | Mouse CD40/CD154 log IC50 ([1]; log of IC50, cell-free binding) | Human TNFR1/TNFα log IC50 (human TNF-R1/TNFα; log of IC50, cell-free binding) | Structure (SMILES)
1 | 14.6 | 14 | 4.5 | 486 | – | – | – | – | – | Cc1ccc(C(=O)Nc2ccc(S(=O)(=O)O)c3cc(S(=O)(=O)O)cc(S(=O)(=O)O)c23)cc1NC(=O)c1cccc(NC(=O)Nc2cccc(C(=O)Nc3cc(C(=O)Nc4ccc(S(=O)(=O)O)c5cc(S(=O)(=O)O)cc(S(=O)(=O)O)c45)ccc3C)c2)c1 [Suramin, reference compound]
2 | > 2000 | – | > 2000 | > 2000 | inactive | >2000 | >−3.0 | >−3.0 | >−3.0 | O=C([O-])C1=NN(c2ccc(S(=O)(=O)[O-])cc2)C(=O)C1N=Nc1ccc(S(=O)(=O)[O-])cc1.[Na+].[Na+].[Na+] (stereo not drawn) [Tartrazine (FD&C yellow 5), Tartrazine, reference compound]
